The test system of the test is chorda tympani nerve of wild-type B6 mice. The test is described as follows: Chorda tympani whole-nerve responses to lingual taste stimuli, wild-type B6 mice. The format is in vivo. The note with it: lingual application (FIG. 6B, 7). As for the experimental part: Mouse model for sweet property and bitter-masking assay. Recordings of chorda tympani (CT) whole-nerve responses: All protocols involving animals were approved by the Institutional Animal Care and Use Committees at the Monell Center prior to the experiments. The study was performed with mice from two strains: C57BL/6J inbred strain (B6; Jackson Laboratory, Bar Harbor, Me.) bearing the wild-type Tas1r3 allele was used as the control, and the C57BL/6J-Tas1r3^tm1Rjm “gene-knockout” strain (T1R3-KO) lacking the entire T1R3 coding region and devoid of T1R3 protein ([…]., et al., Science, 301: 850-853 (2003)). Afferent signals from taste cells are relayed to the brain via three major gustatory nerves: the chorda tympani, glossopharyngeal, and greater superficial petrosal. […] Neural responses resulting from chemical stimulations of the tongue were fed into an amplifier (Grass Instruments, West Warwick, R.I.) and monitored on an oscilloscope and an audio monitor. Whole-nerve responses were integrated with a time constant of 1.0 s and recorded using a computer for later analysis using a PowerLab system (PowerLab/sp4; AD Instruments, Colorado Springs, Colo.). […] To analyze nerve responses to each stimulus, the magnitudes of integrated responses at 5, 10, 15, 20, and 25 s after stimulus onset were measured and averaged. […]

As to `OC[C@H]1O[C@@H](O[C@@H]2[C@@H](O)[C@H](O)[C@@H](CO)O[C@H]2O)[C@H](O)[C@@H](O)[C@@H]1O` [Sophorose, 2-O-β-D-glucopyranosyl-β-D glucopyranose], the chorda tympani responses result is reported as “present”.

These data come from patent US10799590B2, “Compositions containing a bitter tastant and at least one sophorolipid, and methods of reducing bitter taste attributed to a bitter tastant in an edible composition” (The United States of America, as Represented by the …, priority 2015, dated 2020).
